Measurements as given in article PMC8472913 (Viruses, 2021).
Read-outs that look alike come from different tables or passages of the source.

What was measured:
HuNoV GI.1 replicon [1] = test: HuNoV GI.1 replicon assay in HGT cells (RT-qPCR); assay type: cell-based, Human norovirus
HGT cells = test: Adverse effects on host cells of the HuNoV GI.1 replicon assay; assay type: cell-based; conditions: up to the highest tested concentration of 100 µM
[2] = molecular target: mutated GI.1 proteases (A105V, I109V, A105V/I109V) (Norovirus, UniProt Q83883, A1205V/I1209V); test: Cell-based FRET protease assay, mutated GI.1 proteases; set-up: species or system Human norovirus; conditions: versus WT
[3] = molecular target: mutated GI.1 proteases (A105V, I109V, A105V/I109V) (Norovirus, UniProt Q83883, I1209V); test: as above; set-up: species or system Human norovirus; conditions: versus WT
[4] = system: Murine norovirus (MNV, strain MNV 1.CW1); test: MNV-induced CPE reduction assay (MTS) in RAW 264.7 cells; assay type: cell-based; conditions: for selectivity index (SI): MNV, CC50/EC50
[5] = Pharmacokinetic studies in mice; assay type: in vivo; conditions: CD-1 mice; for AUC(0-t) / Cmax / Tmax / bioavailability / half-life / AUC(0-inf) / MRT inf / clearance: male, mouse, serum; for AUC(0-inf): read-out: AUCINF_obs; for MRT inf: read-out: MRTINF_obs; for clearance: read-out: CL_obs
[6] = system: Murine norovirus (MNV, strain MNV 1.CW1); test: MNV virus yield assay, viral RNA by RT-qPCR; assay type: cell-based; conditions: Norwalk virus, RAW264.7, RAW 264.7 cells
GV protease = GV protease (Norovirus, UniProt Q80J95); test: Cell-based FRET protease assay, GV protease
Water solubility = assay type: physicochemical
GI.1 protease = GI.1 protease (Norovirus, UniProt Q83883); test: Cell-based FRET protease assay, GI.1 protease; set-up: species or system Human norovirus
[7] = Cytotoxicity assay (MTS) in RAW 264.7 cells; assay type: cell-based; conditions: mouse
GII protease = GII protease (Lordsdale virus, UniProt P54634); test: Cell-based FRET protease assay, GII protease; set-up: species or system norovirus
[8] = molecular target: mutated GI.1 proteases (A105V, I109V, A105V/I109V) (Norovirus, UniProt Q83883, A1205V); test: Cell-based FRET protease assay, mutated GI.1 proteases; set-up: species or system Human norovirus; conditions: versus WT
[9] = system: Murine norovirus (MNV, strain MNV 1.CW1); set-up: method as in earlier work; conditions: read-out: EC50 against MNV; cited from earlier work
[10] = system: HuNoV GI.1 replicon variants; test: Generation of drug-resistant HuNoV GI.1 replicon variants; assay type: cell-based, Human norovirus; conditions: for EC50: Norovirus
HuNoV GI.1 replicon [11] = test: HuNoV GI.1 replicon clearance assay; assay type: cell-based, Human norovirus; conditions: for reduction in HuNoV GI.1 RNA: 10 µM
[12] = system: compound 4res MNV variant; test: Generation of drug-resistant MNV variants; assay type: cell-based, Murine norovirus; conditions: after 25 passages (6 months)
[13] = Norovirus, HuNoV replicon, read-out: HuNoV-EC50
[14] = Norwalk virus, RAW264.7, read-out: MNV-EC50
[15] = selection pressure: 10 µM of rupintrivir
[16] = selection pressure: 14 µM of rupintrivir
[17] = selection pressure: DMSO control
[18] = selection pressure: 6 µM of compound 4
[19] = selection pressure: 10 µM of compound 4
[20] = selection pressure: 16 µM of compound 4

Compound: CC(C)C(NC(=O)c1ccc2ccccc2n1)C(=O)N[C@@H](CC1CCCCC1)C(=O)N[C@H](C=O)C[C@@H]1CCNC1=O (stereo partly drawn) [10d]
- EC50 (HuNoV GI.1 replicon [1]; [13]): 0.012 ± 0.01 µM
- fold more potent (EC50) (HuNoV GI.1 replicon [1]; versus the initial hit): about 100 fold
- adverse effects on the host cells (HGT cells): without adverse effects
- change in IC50 value, A105V/I109V mutation ([2]; GI.1 protease): 1.6 fold
- shift in IC50 value, I109V mutation ([3]; GI.1 protease): 2.5 fold
- selectivity index (SI) [4]: > 1000
- EC50 [4, 14]: 0.037 ± 0.016 µM
- bioavailability, in words [5]: good
- half-life (T1/2), in words [5]: long
- maximal concentration (Cmax), in words [5]: high
- Vss_obs ([5]; i.v. (5 mg/kg)): 3.867 ± 0.758 L/kg
- AUC(0-t) ([5]; ip, i.p. (20 mg/kg)): 10.8 µg·h/mL
- Cmax ([5]; ip, i.p. (20 mg/kg)): 12.7 µg/mL
- Tmax ([5]; ip, i.p. (20 mg/kg)): 0.25 h
- bioavailability ([5]; ip, i.p. (20 mg/kg)): 150%
- half-life ([5]; ip, i.p. (20 mg/kg)): 4.26 ± 0.24 h
- AUC(0-inf) ([5]; ip, i.p. (20 mg/kg)): 10.8 µg·h/mL
- MRT inf ([5]; ip, i.p. (20 mg/kg)): 1.34 ± 0.29 h
- AUC(0-t) ([5]; iv, i.v. (5 mg/kg)): 1.8 ± 0.063 µg·h/mL
- half-life ([5]; iv, i.v. (5 mg/kg)): 5.64 ± 1.63 h
- AUC(0-inf) ([5]; iv, i.v. (5 mg/kg)): 1.81 ± 0.067 µg·h/mL
- clearance ([5]; iv, i.v. (5 mg/kg)): 2.76 ± 0.102 L/h/kg
- MRT inf ([5]; iv, i.v. (5 mg/kg)): 1.4 ± 0.23 h
- AUC(0-t) ([5]; sc, s.c. (5 mg/kg)): 1.84 ± 0.717 µg·h/mL
- Cmax ([5]; sc, s.c. (5 mg/kg)): 1.57 ± 0.582 µg/mL
- Tmax ([5]; sc, s.c. (5 mg/kg)): 0.42 ± 0.29 h
- bioavailability ([5]; sc, s.c. (5 mg/kg)): 102%
- half-life ([5]; sc, s.c. (5 mg/kg)): 6.02 ± 0.92 h
- AUC(0-inf) ([5]; sc, s.c. (5 mg/kg)): 1.86 ± 0.718 µg·h/mL
- MRT inf ([5]; sc, s.c. (5 mg/kg)): 1.7 ± 0.16 h
- EC50 [6]: 0.03 ± 0.01 µM
- IC50 (GV protease): 0.49 µM
- water solubility (Water solubility): low water solubility
- IC50 (GI.1 protease): 0.09 µM
- improvement in the FRET assay, GI protease (GI.1 protease; versus the initial hit): ~ 300 fold
- CC50 [7]: 48 ± 3 µM
- IC50 (GII protease): 0.12 µM
- improvement in the FRET assay, GII protease (GII protease; versus the initial hit): ~ 300 fold

Compound: CC(C)C(NC(=O)c1cc2ccccc2[nH]1)C(=O)NC(CC1CCCCC1)C(=O)NC(C=O)CC1CCNC1=O (stereo not drawn) [10b]
- EC50 (HuNoV GI.1 replicon [1]; [13]): 0.016 ± 0.009 µM
- EC50 [4, 14]: 0.23 ± 0.11 µM

Compound: CC(C)C(NC(=O)c1cc2ccccc2o1)C(=O)N[C@@H](CC1CCCCC1)C(=O)N[C@H](C=O)C[C@@H]1CCNC1=O (stereo partly drawn) [10c]
- EC50 (HuNoV GI.1 replicon [1]; [13]): 0.016 ± 0.006 µM
- EC50 [4, 14]: 0.094 ± 0.014 µM

Compound: CCOC(=O)/C=C/[C@H](C[C@@H]1CCNC1=O)NC(=O)[C@@H](CC(=O)[C@@H](NC(=O)c1cc(C)on1)C(C)C)Cc1ccc(F)cc1 [rupintrivir, Rupintrivir, reference compound]
- shift in IC50 value, A105V/I109V mutation in GI.1 protease [2]: significant shift
- shift in IC50 value, A105V mutation in GI.1 protease [8]: significant shift
- reduction of GI.1 protease sensitivity, single I109V mutation [3]: did not result in a significant reduction
- IC50 (GV protease): 4.6 µM
- IC50 (GI.1 protease; FRET, HEK293T cells, WT protease, read-out: IC50, GI.1 protease): 3 µM
- EC50 [9]: 13 ± 2 µM
- IC50 (GII protease; FRET, HEK293T cells, WT protease, read-out: IC50, GII protease): 12.2 µM
- EC50 [10, 15]: 9.4 ± 0.5 µM
- EC50 [10, 16]: 15 ± 3 µM
- EC50 [10, 17]: 1 ± 0.1 µM
- Fold Change in EC50 [10, 15]: 9.3
- Fold Change in EC50 [10, 16]: 15
- Fold Change in EC50 ([10]; selection pressure: 14 µM of rupintrivir, listed as Rupintrivir): 15.2

Compound: O=C[C@H](C[C@@H]1CCNC1=O)NC(=O)[C@H](CC1CCCCC1)NC(=O)c1ccc2ccccc2n1 [compound 4]
- reduction in HuNoV GI.1 RNA (HuNoV GI.1 replicon [11]; after three passages): 3 log10
- reduction in HuNoV GI.1 RNA (HuNoV GI.1 replicon [11]; after two passages): 2 log10
- clearance of the HuNoV GI.1 replicon from cells (HuNoV GI.1 replicon [11]; two consecutive treatments with 10 µM, rebound with G418): could clear cells from the HuNoV GI.1 replicon completely
- EC50 (HuNoV GI.1 replicon [1]; HGT cells, 72 h, replicon RNA relative to β actin, read-out: EC50, HuNoV GI.1 replicon): 1.2 ± 0.6 µM
- shift in EC50, MNV compound 4res variant [12]: 4.5 fold
- adverse effects on the host cells (HGT cells): no adverse effects
- shift in IC50 value, A105V/I109V mutation in GI.1 protease [2]: not
- shift in IC50 value, A105V mutation in GI.1 protease [8]: not
- reduction of GI.1 protease sensitivity, single I109V mutation [3]: did not result in a significant reduction
- selectivity index (SI) [4]: 35.6
- EC50 ([4]; Norwalk virus, RAW264.7, RAW 264.7 cells, MTS, read-out: EC50, MNV-induced CPE): ~1 µM
- EC50 ([4]; RAW 264.7 cells, MTS, read-out: EC50, MNV-induced CPE): 0.7 ± 0.2 µM
- area under the curve (AUC) value, in words [5]: high
- bioavailability, in words [5]: good
- half-life (T1/2), in words [5]: moderate
- maximal concentration (Cmax), in words [5]: high
- Vss_obs ([5]; i.v. (5 mg/kg)): 1.498 ± 0.714 L/kg
- AUC(0-t) ([5]; ip, i.p. (20 mg/kg)): 14.9 µg·h/mL
- Cmax ([5]; ip, i.p. (20 mg/kg)): 14.5 µg/mL
- Tmax ([5]; ip, i.p. (20 mg/kg)): 0.25 h
- bioavailability ([5]; ip, i.p. (20 mg/kg)): 72.1%
- half-life ([5]; ip, i.p. (20 mg/kg)): 5.11 ± 1.07 h
- AUC(0-inf) ([5]; ip, i.p. (20 mg/kg)): 15 µg·h/mL
- MRT inf ([5]; ip, i.p. (20 mg/kg)): 1.4 ± 0.06 h
- AUC(0-t) ([5]; iv, i.v. (5 mg/kg)): 5.16 ± 1.32 µg·h/mL
- half-life ([5]; iv, i.v. (5 mg/kg)): 5.5 ± 0.85 h
- AUC(0-inf) ([5]; iv, i.v. (5 mg/kg)): 5.19 ± 1.3 µg·h/mL
- clearance ([5]; iv, i.v. (5 mg/kg)): 1.01 ± 0.264 L/h/kg
- MRT inf ([5]; iv, i.v. (5 mg/kg)): 1.44 ± 0.3 h
- AUC(0-t) ([5]; sc, s.c. (5 mg/kg)): 4.06 ± 1.14 µg·h/mL
- Cmax ([5]; sc, s.c. (5 mg/kg)): 2.2 ± 0.894 µg/mL
- Tmax ([5]; sc, s.c. (5 mg/kg)): 0.58 ± 0.29 h
- bioavailability ([5]; sc, s.c. (5 mg/kg)): 78.6%
- half-life ([5]; sc, s.c. (5 mg/kg)): 5.63 ± 0.4 h
- AUC(0-inf) ([5]; sc, s.c. (5 mg/kg)): 4.11 ± 1.14 µg·h/mL
- MRT inf ([5]; sc, s.c. (5 mg/kg)): 2.95 ± 0.53 h
- EC50 [6]: 1.7 ± 0.6 µM
- IC50 (GV protease): 32.5 µM
- IC50 (GI.1 protease): 34 µM
- CC50 [7]: 25.3 ± 6.1 µM
- IC50 (GII protease): 40.6 µM
- EC50 [10, 18]: 3.8 µM
- EC50 [10, 19]: 4.3 µM
- EC50 [10, 20]: 11.5 ± 0.9 µM
- EC50 [10, 17]: 0.8 ± 0.3 µM
- Fold Change in EC50 [10, 18]: 4.5
- Fold Change in EC50 [10, 19]: 5.2
- Fold Change in EC50 [10, 20]: 13.8

Compound: Cc1cc(C(=O)NC(C(=O)NC(CC2CCCCC2)C(=O)NC(C=O)CC2CCNC2=O)C(C)C)no1 (stereo not drawn) [10a]
- EC50 (HuNoV GI.1 replicon [1]; [13]): 0.24 ± 0.11 µM
- EC50 [4, 14]: 3.8 ± 0.97 µM
